Data published in ChEMBL document CHEMBL1137794, “Didemnins and tunichlorin: novel natural products from the marine tunicate Trididemnum solidum” (J Nat Prod, 1988).
≈ marks a conversion by molar mass, not a printed value. Calls of active or inactive are those of the source. The rule behind the calls is not given here. *1 amine or outer side, *2 acyl side, *3 side chain or, on linkers, in order; H or OH if unused. Where a SMILES comes first, the peptide text is derived from it. Bridges are numbered along the chain shown (N, C = ends). [ ]: non-standard residue; d: D form. X1 = CC[C@H](C)[C@@H](N[*:1])[C@@H](O)CC(=O)O[C@H](C(=O)[C@H](C)C(=O)[*:2])C(C)C; NMeY = CN[C@@H](Cc1ccc(O)cc1)C(=O)O; dNMeL = CN[C@H](CC(C)C)C(=O)O; Lac = C[C@H](O)C(=O)O

Assays:
[1] = tested on: Yellow fever virus; test: Antiviral activity against Yellow fever virus infected in rhesus monkey MK2 cells assessed as plaque reduction at 250 ug/mL; format: functional, organism-based
[2] = tested on: Venezuelan equine encephalitis virus; test: Antiviral activity against Venezuelan equine encephalomyelitis virus infected in african green monkey Vero cells assessed as plaque reduction at 250 ug/mL; format: functional, organism-based
[3] = tested on: Rift Valley fever virus; test: Antiviral activity against Rift Valley fever virus infected in african green monkey Vero cells assessed as plaque reduction at 250 ug/mL; format: functional, organism-based
[4] = tested on: Sandfly fever Sicilian virus; test: Antiviral activity against Sandfly fever virus assessed as plaque reduction at 250 ug/mL; format: functional, organism-based
[5] = tested on: B cell; test: Immunosuppressive activity in human B cell assessed as inhibition of mitogenesis
[6] = tested on: T-cell; test: Immunosuppressive activity in human T cell assessed as inhibition of mitogenesis; format: functional, cell-based
[7] = tested on: Lymphocyte; test: Immunosuppressive activity in human lymphocytes assessed as inhibition of protein synthesis
[8] = tested on: T-cell; test: Immunosuppressive activity in baboon T cell assessed as inhibition of mitogenesis; details: Papio hamadryas
[9] = tested on: T-cell; test: Immunosuppressive activity in rat T cell assessed as inhibition of mitogenesis
[10] = tested on: Lymphocyte; test: Immunosuppressive activity in baboon lymphocytes by mixed lymphocyte reaction assay; details: Papio hamadryas
[11] = tested on: Lymphocyte; test: Immunosuppressive activity in human lymphocytes by mixed lymphocyte reaction assay; format: functional, cell-based
[12] = tested on: P388; test: Antitumor activity against mouse P388 cells xenografted mouse assessed as extend the life time at 0.03 to 1 mg/kg, ip; format: functional; details: dose mg/kg 0.03-1; route intraperitoneal
[13] = tested on: L1210; test: Cytotoxicity against mouse L1210 cells; format: functional; details: read-out: ID50 (the source's name)
[14] = tested on: Mus musculus; test: Toxicity in mouse P388 cells xenografted mouse assessed as change in body weight at 0.5 mg/kg, ip administered on day 1, 5 and day 9; format: organism-based; set-up: dose 0.5 mg/kg, route intraperitoneal; details: in vivo
[15] = tested on: Mus musculus; test: Toxicity in mouse B16 cells xenografted mouse assessed as change in body weight at 0.06 mg/kg, ip administered on day 1, 5 and day 9; format: organism-based; set-up: dose 0.06 mg/kg, route intraperitoneal; details: in vivo
[16] = tested on: Mus musculus; test: Toxicity in mouse P388 cells xenografted mouse assessed as change in body weight at 0.06 mg/kg, ip administered on day 1, 5 and day 9; format: organism-based; set-up: dose 0.06 mg/kg, route intraperitoneal; details: in vivo
[17] = tested on: Mus musculus; test: Toxicity in mouse B16 cells xenografted mouse assessed as change in body weight at 0.25 mg/kg, ip administered on day 1 to day 9; format: organism-based; set-up: dose 0.25 mg/kg, route intraperitoneal; details: in vivo
[18] = organism: Rattus norvegicus; test: Toxicity in rat; format: organism-based; details: in vivo
[19] = tested on: Mus musculus; test: Toxicity in mouse B16 cells xenografted mouse assessed as change in body weight at 0.5 mg/kg, ip administered on day 1 to day 9; format: organism-based; set-up: dose 0.5 mg/kg, route intraperitoneal; details: in vivo
[20] = tested on: Mus musculus; test: Toxicity in mouse P388 cells xenografted mouse assessed as change in body weight at 0.25 mg/kg, ip administered on day 1, 5 and day 9; format: organism-based; set-up: dose 0.25 mg/kg, route intraperitoneal; details: in vivo
[21] = tested on: Mus musculus; test: Toxicity in mouse B16 cells xenografted mouse assessed as change in body weight at 0.5 mg/kg, ip administered on day 1, 5 and day 9; format: organism-based; set-up: dose 0.5 mg/kg, route intraperitoneal; details: in vivo
[22] = tested on: Rift Valley fever virus; test: Antiviral activity against Rift Valley fever virus infected in african green monkey Vero cells assessed as plaque reduction at 0.05 ug/mL; format: functional, organism-based
[23] = tested on: Venezuelan equine encephalitis virus; test: Antiviral activity against Venezuelan equine encephalomyelitis virus infected in african green monkey Vero cells assessed as plaque reduction at 0.05 ug/mL; format: functional, organism-based
[24] = tested on: Sandfly fever Sicilian virus; test: Antiviral activity against Sandfly fever virus assessed as plaque reduction at 0.05 ug/mL; format: functional, organism-based
[25] = tested on: Mus musculus; test: Toxicity in mouse P388 cells xenografted mouse assessed as change in body weight at 0.03 mg/kg, ip administered on day 1, 5 and day 9; format: organism-based; set-up: dose 0.03 mg/kg, route intraperitoneal
[26] = organism: Canis familiaris; test: Toxicity in dog; format: organism-based, Canis lupus familiaris; details: in vivo
[27] = tested on: Mus musculus; test: Toxicity in mouse B16 cells xenografted mouse at 0.5 mg/kg, ip administered on day 1 to day 9; format: organism-based; set-up: dose 0.5 mg/kg, route intraperitoneal; details: in vivo
[28] = tested on: Mus musculus; test: Toxicity in mouse B16 cells xenografted mouse assessed as change in body weight at 0.03 mg/kg, ip administered on day 1 to day 9; format: organism-based; set-up: dose 0.03 mg/kg, route intraperitoneal; details: in vivo
[29] = tested on: Mus musculus; test: Toxicity in mouse B16 cells xenografted mouse assessed as change in body weight at 1 mg/kg, ip administered on day 1, 5 and day 9; format: organism-based; set-up: dose 1 mg/kg, route intraperitoneal; details: in vivo
[30] = tested on: Mus musculus; test: Toxicity in mouse P388 cells xenografted mouse at 0.5 mg/kg, ip administered on day 1 to day 9; format: organism-based; set-up: dose 0.5 mg/kg, route intraperitoneal; details: in vivo
[31] = tested on: Mus musculus; test: Toxicity in mouse P388 cells xenografted mouse assessed as change in body weight at 0.25 mg/kg, ip administered on day 1 to day 9; format: organism-based; set-up: dose 0.25 mg/kg, route intraperitoneal; details: in vivo
[32] = tested on: Mus musculus; test: Toxicity in mouse P388 cells xenografted mouse assessed as change in body weight at 1 mg/kg, ip administered on day 1 to day 9; format: organism-based; set-up: dose 1 mg/kg, route intraperitoneal; details: in vivo
[33] = tested on: Yellow fever virus; test: Antiviral activity against Yellow fever virus infected in rhesus monkey MK2 cells assessed as plaque reduction at 0.05 ug/mL; format: functional, organism-based
[34] = tested on: Mus musculus; test: Toxicity in mouse P388 cells xenografted mouse at 0.06 mg/kg, ip administered on day 1 to day 9; format: organism-based; set-up: dose 0.06 mg/kg, route intraperitoneal; details: in vivo
[35] = tested on: Mus musculus; test: Toxicity in mouse P388 cells xenografted mouse assessed as change in body weight at 0.06 mg/kg, ip administered on day 1 to day 9; format: organism-based; set-up: dose 0.06 mg/kg, route intraperitoneal; details: in vivo
[36] = tested on: Mus musculus; test: Toxicity in mouse B16 cells xenografted mouse assessed as change in body weight at 0.25 mg/kg, ip administered on day 1, 5 and day 9; format: organism-based; set-up: dose 0.25 mg/kg, route intraperitoneal; details: in vivo
[37] = tested on: Mus musculus; test: Toxicity in mouse P388 cells xenografted mouse assessed as change in body weight at 1 mg/kg, ip administered on day 1, 5 and day 9; format: organism-based; set-up: dose 1 mg/kg, route intraperitoneal; details: in vivo
[38] = organism: Mus musculus; test: Toxicity in mouse; format: organism-based; details: in vivo
[39] = tested on: Mus musculus; test: Toxicity in mouse P388 cells xenografted mouse assessed as change in body weight at 0.5 mg/kg, ip administered on day 1 to day 9; format: organism-based; set-up: dose 0.5 mg/kg, route intraperitoneal; details: in vivo
[40] = organism: Mus musculus; test: Immunosuppressive activity in spleen cells transformed mouse assessed as inhibition of splenomegaly by graft-versus-host reaction assay; format: functional, organism-based
[41] = tested on: Mus musculus; test: Toxicity in mouse B16 cells xenografted mouse assessed as change in body weight at 0.06 mg/kg, ip administered on day 1 to day 9; format: organism-based; set-up: dose 0.06 mg/kg, route intraperitoneal; details: in vivo

## NC(=O)c1ncn([C@@H]2O[C@H](CO)[C@@H](O)[C@H]2O)n1
[1]
  Activity: Active
[2]
  Activity: Active
[3]
  Activity: Active
[4]
  Activity: Active

## Cn1cnc([N+](=O)[O-])c1Sc1ncnc2[nH]cnc12 [AZATHIOPRINE]
[5]
  IC50: 1 µg/mL (≈ 3.61 µM)
[6]
  IC50: 9 µg/mL (≈ 32.5 µM)
[7]
  IC50: 85 µg/mL (≈ 307 µM)
[8]
  IC50: 0.4 µg/mL (≈ 1.44 µM)
[9]
  IC50: 2 µg/mL (≈ 7.21 µM)
[10]
  IC50: 2.9 µg/mL (≈ 10.5 µM)
[11]
  IC50: 3 µg/mL (≈ 10.8 µM)

## CC[C@H](C)[C@H]1NC(=O)[C@@H](NC(=O)[C@@H](CC(C)C)NC)[C@@H](C)OC(=O)[C@H](Cc2ccc(OC)cc2)N(C)C(=O)[C@@H]2CCCN2C(=O)[C@H](CC(C)C)NC(=O)[C@@H](C)C(=O)[C@H](C(C)C)OC(=O)C[C@@H]1O [DIDEMNIN A] (H-[dNMeL]T[X1]LP[NMeY](Me); ester 2-C)
[12]
  Activity: 100%
[13]
  IC50: 0.002 µg/mL (≈ 0.00212 µM)

## CC[C@H](C)[C@H]1NC(=O)[C@@H](NC(=O)[C@@H](CC(C)C)N(C)C(=O)[C@@H]2CCCN2C(=O)C(C)O)[C@@H](C)OC(=O)[C@H](Cc2ccc(OC)cc2)N(C)C(=O)[C@@H]2CCCN2C(=O)[C@H](CC(C)C)NC(=O)[C@@H](C)C(=O)[C@H](C(C)C)OC(=O)C[C@@H]1O (some centres not stated) [DIDEMNIN B]
[14]
  Activity: -1.7 g
[15]
  Activity: 1.2 g
[16]
  Activity: 1.2 g
[17]
  Activity: -3.3 g
[18]
  Activity: Toxic
[19]
  Activity: -4.5 g
[20]
  Activity: -0.5 g
[21]
  Activity: -1.3 g
[22]
  Activity: Active
[23]
  Activity: Active
[24]
  Activity: Active
[25]
  body weight change: 1600 mg
[26]
  Activity: Toxic
[27]
  Activity: Toxic
[28]
  Activity: 0.8 g
[29]
  Activity: -3.2 g
[30]
  Activity: Toxic
[31]
  Activity: -2.2 g
[32]
  Activity: Toxic
[33]
  Activity: Active
[34]
  Activity: Toxic
[35]
  Activity: 0.1 g
[36]
  Activity: 0.3 g
[37]
  Activity: -3.8 g
[38]
  Activity: Toxic
[39]
  Activity: -3.4 g
[40]
  inhibition: Dose-dependent effect
[41]
  Activity: -0.4 g

## CC[C@H](C)[C@H]1NC(=O)[C@@H](NC(=O)[C@@H](CC(C)C)N(C)C(=O)[C@H](C)O)[C@@H](C)OC(=O)[C@H](Cc2ccc(OC)cc2)N(C)C(=O)[C@@H]2CCCN2C(=O)[C@H](CC(C)C)NC(=O)[C@@H](C)C(=O)[C@H](C(C)C)OC(=O)C[C@@H]1O [DIDEMNIN C] (H-[Lac][dNMeL]T[X1]LP[NMeY](Me); ester 3-C)
[13]
  IC50: 0.002 µg/mL (≈ 0.00197 µM)
